The term EC50 denotes the concentration giving half of the maximal effect. The Ki is a dissociation constant, usually derived from enzyme kinetics or from competition with a known ligand.

Structures are written as SMILES. Read-outs that look alike come from different tables or passages of the source.

Among the data in patent publication US7169932B2 (priority 2001, dated 2007) are EC50 and Ki values, retold here.

Assay [1] has as its system HIV-1. Briefly: Cytopathic Effect (CPE) Inhibition Assay (XTT dye reduction). Type of assay: cell-based. On the procedure: T-cell lines, CEM-SS, and MT-2, and viruses HIV-1 RF and HIV-1 NL4–3 (pNL4–3) were obtained from the National Institutes of Health (AIDS Research and Reference Reagent Program, Bethesda, Md.).
The ability of compounds to protect cells against HIV infection was measured by the […] dye reduction method, essentially as described (See Pauwels, R. Balzarini, J. Baba, M. Snoeck, R. Schols, D. Herdewijn, P. Desmyter, J. and De Clercq, E. 1988, “Rapid and automated tetrazolium-based colorimetric assay for the detection of anti-HIV compounds,”. J Virol Methods., 20: 309–321 and Weislow, O. S. Kiser, R. Fine, D. L. Bader, J. Shoemaker, R. H. and Boyd, M. R. 1989. “New soluble-formazan assay for HIV-1 cytopathic effects: application to high-flux screening of synthetic and natural products for AIDS-antiviral activity”. J. Natl. Cancer Inst. 81:577–586). Subject cells were infected with test virus at an moi of 0.025 to 0.819 or mock infected with medium only and added at 2×10^4 cells per well into 96 well plates containing half-log dilutions of test compounds. Six days later, 50 μl of XTT (1 mg/ml XTT tetrazolium, […] phenazine methosulfate) was added to the wells and the plate was reincubated for four hours. Viability, as determined by the amount of XTT formazan produced, was quantified spectrophotometrically by absorbance at 450 nm. Data from CPE assays were expressed as the percent of formazan produced in compound-treated cells compared to formazan produced in wells of uninfected, compound-free cells. The fifty percent effective concentration (EC50) was calculated as the concentration of compound that effected an increase in the percentage of formazan production in infected, compound-treated cells to 50% of that produced by uninfected, compound-free cells. The 50% cytotoxicity concentration (CC50) was calculated as the concentration of compound that decreased the percentage of formazan produced in uninfected, compound-treated cells to 50% of that produced in uninfected, compound-free cells. The therapeutic index was calculated by dividing the cytotoxicity (CC50) by the antiviral activity (EC50).
On the technique in general: Cytopathic effects are the visible damage that an infection or toxin causes in cultured cells.

Assay [2] addresses T1, HIV-1 protease (Q7S) (Human immunodeficiency virus type 1 group M subtype B, UniProt P04585, Q495S).
T1 construct: made in house
Briefly: HIV-1 Protease RET Assay. It counts as biochemical. The procedure:
Ki's for the inhibitors of HIV-1 protease were determined using a resonance energy transfer (RET) assay. […] This enzyme is first partially purified as inclusion bodies from cell lysate. It is then solublized in 8M urea and passed through a Q-Sepharose column (Pharmacia) for further purification. To refold this protein, samples containing Q7S is dialyzed into 50 mM sodium phosphate pH 7.0, 50 mM NaCl, 10 mM DTT, and 10% glycerol.
The commercially available peptide substrate (Molecular Probes Cat. # H-2930) RE(EDANS)SQNYPIVQK(DABCYL)R is used to assess activity and Ki's. This peptide is cleaved quantitatively by HIV-1 Pr at the Tyr-Pro bond. The EDANS fluorophore absorbs at 340 nm and emits at 490 nm. The reaction is carried out in a 96 well plate in a total volume of 100 μL and is run for 12 minutes at 37 C under steady-state conditions with 5 μM substrate and 2 nM active dimer enzyme concentration. The literature value Km for this substrate and enzyme is 103+/−8 μM (See Matayoshi, et al., “Novel Fluorogenic Substrates for Assaying Retroviral Proteases by Resonance Energy Transfer,” Science 247, 954 (1990)). The buffer for this reaction is 0.1M sodium acetate pH 4.8, 1M NaCl, 1 mM EDTA, 5 mM dithiothreitol, 10% dimethyl sulfoxide and 1 mg/ml bovine serum albumin. Inhibition curves are fit using the Morrison tight binding equation.

The mark [3] stands for this setting: Ki, table of drawn compounds, unit inferred.
[4] abbreviates: Human immunodeficiency virus 1, 144 h, read-out: Ave CPE EC50 (mM).
Setting [5] is: Ave. Ki (nM), RET assay, Q7S enzyme, pH 4.8, 37 C.

In turn, `Cc1c(O)cccc1C(=O)N[C@@H](Cc1ccccc1)[C@H](O)C(=O)N1CSC(C)(C)[C@H]1C(=O)NCc1cc(F)c(F)cc1F` yielded an EC50 in assay [1] (Human immunodeficiency virus 1) of 289 nM. This molecule also showed a Ki in assay [2] (setting [3]) of 0.17 nM.
The corresponding values for `Cc1c(Cl)cccc1CNC(=O)[C@H]1N(C(=O)[C@@H](O)[C@H](Cc2ccccc2)NC(=O)c2cccc(O)c2C)CSC1(C)C` are 113 nM and 0.2 nM.
Turning to `Cc1ccccc1CNC(=O)[C@H]1N(C(=O)[C@@H](O)[C@H](Cc2ccccc2)NC(=O)c2cccc(N)n2)CSC1(C)C` [Example B40, 6-Amino-pyridine-2-carboxylic acid {(1S,2S)-1-benzyl-3-[(R)-5,5-dimethyl-4-(2-methyl-benzylcarbamoyl)-thiazolidin-3-yl]-2-hydroxy-3-oxo-propyl}-amide], the EC50 in assay [1] (setting [4]) came out at 1400 nM. This molecule also showed a Ki in assay [2] (setting [5]) of 2.8 nM.
The matching figures for `C=CCN(C)C(=O)[C@H]1N(C(=O)[C@@H](O)[C@H](Cc2ccccc2)NC(=O)c2cccc(O)c2C)CSC1(C)C` [Example A23, (R)-3-((2S,3S)-2-Hydroxy-3-{[1-(3-hydroxy-2-methyl-phenyl)-methanoyl]-amino}-4-phenyl-butanoyl)-5,5-dimethyl-thiazolidine-4-carboxylic acid allyl-methyl-amide]: 72 nM and 0.65 nM.
The corresponding values for `Cc1ccccc1CNC(=O)C1N(C(=O)C(O)C(Cc2ccccc2)NC(=O)C2=NNC(=O)CC2)CSC1(C)C` (centres unmarked) [Example B18, 6-Oxo-1,4,5,6-tetrahydro-pyridazine-3-carboxylic acid {1-benzyl-3-[5,5-dimethyl-4-(2-methyl-benzylcarbamoyl)-thiazolidin-3-yl]-2-hydroxy-3-oxo-propyl}-amide] are 457 nM and 0.29 nM.
In the case of `C#CCNC(=O)[C@H]1N(C(=O)[C@@H](O)[C@H](Cc2ccccc2)NC(=O)[C@@H]2CCCO2)CSC1(C)C`, the midpoint of the response in assay [1] (Human immunodeficiency virus 1), the EC50, lay at 3740 nM. Also, the inhibition constant Ki in assay [2] (setting [3]) worked out at 16.8 nM.
`Cc1c(O)cccc1C(=O)N[C@@H](Cc1ccccc1)[C@H](O)C(=O)N1CSC(C)(C)[C@H]1C(=O)NCc1cccc(OCC(C)C)c1` gave an EC50 in assay [1] (Human immunodeficiency virus 1) of 1110 nM. Further, in assay [2] (setting [3]), the inhibitory constant (Ki) is 1.1 nM.
Take `Cc1c(O)cccc1C(=O)N[C@@H](Cc1ccccc1)[C@H](O)C(=O)N1CSC(C)(C)[C@H]1C(=O)NCc1ccc(C(F)(F)F)cc1F`: the EC50 in assay [1] (Human immunodeficiency virus 1) was 1400 nM. For the same molecule, in assay [2] (setting [3]), the inhibition constant (Ki) is 11.1 nM.
The matching figures for `Cc1cc(C(=O)N[C@@H](Cc2ccccc2)[C@H](O)C(=O)N2CSC(C)(C)[C@H]2C(=O)NCc2ccccc2C)no1`: 1310 nM and 2.6 nM.
Regarding `Cc1cccc(CNC(=O)[C@H]2N(C(=O)[C@@H](O)[C@H](Cc3ccccc3)NC(=O)c3cccc(O)c3C)CSC2(C)C)c1`, the concentration giving a half-maximal response (EC50) in assay [1] (Human immunodeficiency virus 1) was found to be 76 nM. Besides, in assay [2] (setting [3]), the Ki turned out to be 1.5 nM.
Take `Cc1ccccc1CNC(=O)[C@@H]1[C@H](C)OCN1C(=O)[C@@H](O)[C@H](Cc1ccccc1)NC(=O)c1cccc(O)c1C` [Example C8, (4S,5S)-3-((2S,3S)-2-Hydroxy-3-{[1-(3-hydroxy-2-methyl-phenyl)-methanoyl]-amino}-4-phenyl-butanoyl)-5-methyl-oxazolidine-4-carboxylic acid 2-methyl-benzylamide]: in assay [1] (setting [4]), the half-maximal effective concentration (EC50) came out at 447 nM. This molecule displayed a Ki in assay [2] (setting [5]) of 0.26 nM.
On to `Cc1ccc(C(=O)N[C@@H](Cc2ccccc2)[C@H](O)C(=O)N2CSC(C)(C)[C@H]2C(=O)CCC(F)(F)F)c(C)c1O`, for which the concentration giving a half-maximal response (EC50) in assay [1] (Human immunodeficiency virus 1) is 723 nM. The affinity in assay [2] (setting [3]), expressed as Ki, was 9.6 nM.
Turning to `Cc1ccccc1CNC(=O)[C@H]1N(C(=O)[C@@H](O)[C@H](Cc2ccccc2)NC(=O)c2c[nH]cn2)CSC1(C)C`, in assay [1] (Human immunodeficiency virus 1), the 50% effective concentration (EC50) was at least 10000 nM. Further, in assay [2] (setting [3]), the affinity corresponds to a Ki of 55.8 nM.
As for `CCCNC(=O)[C@H]1N(C(=O)[C@@H](O)[C@H](Cc2ccccc2)NC(=O)c2cccc(F)c2C)CSC1(C)C` [Example B31, (R)-3-((2S,3S)-3-{[1-(3-Fluoro-2-methyl-phenyl)-methanoyl]-amino}-2-hydroxy-4-phenyl-butanoyl)-5,5-dimethyl-thiazolidine-4-carboxylic acid propylamide], in assay [1] (setting [4]), the concentration giving a half-maximal response (EC50) was 1320 nM. This molecule also came in with a Ki in assay [2] (setting [5]) of 1.5 nM.
Turning to `COc1cccc(CNC(=O)[C@H]2N(C(=O)[C@@H](O)[C@H](Cc3ccccc3)NC(=O)c3ccc(C)c(O)c3C)CSC2(C)C)c1`, in assay [1] (Human immunodeficiency virus 1), it took 1330 nM to reach a half-maximal effect (EC50). For the same molecule, the Ki in assay [2] (setting [3]) turned out to be 3.7 nM.
Turning to `C=CCNC(=O)[C@H]1N(C(=O)[C@@H](O)[C@H](Cc2ccccc2)NC(=O)c2ccc(C)c(O)c2C)CSC1(C)C` [Example B20, (R)-3-((2S,3S)-2-Hydroxy-3-{[1-(3-hydroxy-2,4-dimethyl-phenyl)-methanoyl]-amino}-4-phenyl-butanoyl)-5,5-dimethyl-thiazolidine-4-carboxylic acid allylamide], the concentration giving a half-maximal response (EC50) in assay [1] (setting [4]) came to 427 nM. In assay [2] (setting [5]), the Ki turned out to be 2.1 nM.
`COc1ccccc1C(=O)N[C@@H](Cc1ccccc1)[C@H](O)C(=O)N1CSC(C)(C)[C@H]1C(=O)NCc1ccccc1C` came in with an EC50 in assay [1] (Human immunodeficiency virus 1) of 1490 nM. Also, in assay [2] (setting [3]), the Ki was 2.1 nM.
The matching figures for `Cc1c(O)cccc1C(=O)N[C@@H](Cc1ccccc1)[C@H](O)C(=O)N1CSC(C)(C)C1C(=O)NCCC(C)C` (some centres unmarked): 72 nM and at most 0.1 nM.
Consider `Cc1ccc(F)cc1CNC(=O)[C@H]1N(C(=O)[C@@H](O)[C@H](Cc2ccccc2)NC(=O)c2cccc(O)c2C)COC1(C)C` [Example C9, (S)-3-((2S,3S)-2-Hydroxy-3-{[1-(3-hydroxy-2-methyl-phenyl)-methanoyl]-amino}-4-phenyl-butanoyl)-5,5-dimethyl-oxazolidine-4-carboxylic acid 5-fluoro-2-methyl-benzylamide], for which the half-maximal effective concentration (EC50) in assay [1] (setting [4]) came to 233 nM. The same molecule registered a Ki in assay [2] (setting [5]) of 0.34 nM.
In turn, `C=CCN(C)C(=O)[C@H]1N(C(=O)[C@@H](O)[C@H](Cc2ccccc2)NC(=O)c2ccno2)CSC1(C)C` registered an EC50 in assay [1] (Human immunodeficiency virus 1) of 4950 nM. Also, in assay [2] (setting [3]), affinity was put at a Ki of 24.6 nM.
Regarding `Cc1c(O)cccc1C(=O)N[C@@H](Cc1ccccc1)[C@H](O)C(=O)N1CSC(C)(C)[C@H]1C(=O)NCc1cccc(CN(C)C)c1`, the EC50 in assay [1] (Human immunodeficiency virus 1) amounted to 3200 nM. The molecule further yielded an inhibition constant (Ki) in assay [2] (setting [3]) of 10.5 nM.
Take `C/C=C(/C)CNC(=O)[C@H]1N(C(=O)[C@@H](O)[C@H](Cc2ccccc2)NC(=O)c2cccc(O)c2C)CSC1(C)C` [Example A34, (R)-3-((2S,3S)-2-Hydroxy-3-{[1-(3-hydroxy-2-methyl-phenyl)-methanoyl]-amino}-4-phenyl-butanoyl)-5,5-dimethyl-thiazolidine-4-carboxylic acid ((Z)-2-methyl-but-2-enyl)-amide]: the EC50 in assay [1] (setting [4]) amounted to 36 nM. Also, the Ki in assay [2] (setting [5]) was below 0.1 nM.
Take `Cc1c(O)cccc1C(=O)N[C@@H](Cc1ccccc1)[C@H](O)C(=O)N1CSC(C)(C)[C@H]1C(=O)NCc1ccc(N(C)C)cc1` [Example A15, (R)-3-((2S,3S)-2-Hydroxy-3-{[1-(3-hydroxy-2-methyl-phenyl)-methanoyl]-amino}-4-phenyl-butanoyl)-5,5-dimethyl-thiazolidine-4-carboxylic acid 4-dimethylamino-benzylamide]: in assay [1] (setting [4]), the EC50 was determined as 130 nM. In assay [2] (setting [5]), the inhibitory constant (Ki) turned out to be 10.9 nM.
In assay [1] (Human immunodeficiency virus 1), `CCC/C=C/CNC(=O)[C@H]1N(C(=O)[C@@H](O)[C@H](Cc2ccccc2)NC(=O)c2cccc(O)c2C)CSC1(C)C` registered a half-maximal effective concentration (EC50) of 1420 nM. In assay [2] (setting [3]), the inhibition constant (Ki) came out at 2.6 nM.
On to `CC(=O)Nc1cccc(CNC(=O)[C@H]2N(C(=O)[C@@H](O)[C@H](Cc3ccccc3)NC(=O)c3cccc(O)c3C)CSC2(C)C)c1` [Example A33, (R)-3-((2S,3S)-2-Hydroxy-3-{[1-(3-hydroxy-2-methyl-phenyl)-methanoyl]-amino}-4-phenyl-butanoyl)-5,5-dimethyl-thiazolidine-4-carboxylic acid 3-acetylamino-benzylamide], for which the EC50 in assay [1] (setting [4]) amounted to 577 nM. Further, in assay [2] (setting [5]), the Ki is below 0.1 nM.
